In general, clearance refers to the volume of plasma or blood freed of the substance per unit of time. For orientation: AUC means the area under the concentration-time curve, a measure of exposure.

This note sets out measurements from paper PMC8159160 (Journal of medicinal chemistry, 2021).

This series can be described thus: in vivo. Conditions: mouse, plasma; for clearance: iv, 15 mg/kg.

The molecule `CCN1C(=O)[C@@H](NC(=O)c2cccc(C)c2)[C@@H](c2ccc(F)cc2)c2c(C)nn(-c3ccccc3)c21` (relative stereo) [Compound 2, N-(rel-(4S,5S)-7-ethyl-4-(4-fluorophenyl)-3-methyl-6-oxo-1-phenyl-4,5,6,7-tetrahydro-1H-pyrazolo[3,4-b]pyridin-5-yl)-3-methylbenzamide] had a clearance of 86.7 mL/min/kg. Under “po, 50 mg/kg”, this molecule came in with an AUC of 2.9 µM·h.

Molecule `CCN1C(=O)[C@@H](NC(=O)c2cccc(C(F)(F)F)c2)[C@@H](c2ccc(F)cc2)c2c(CN)nn(-c3ccccc3)c21` (relative stereo) [Compound 40, N-(rel-(4S,5S)-3-(aminomethyl)-7-ethyl-4-(4-fluorophenyl)-6-oxo-1-phenyl-4,5,6,7-tetrahydro-1H-pyrazolo[3,4-b]pyridin-5-yl)-3-(trifluoromethyl)benzamide] gave a clearance of 20 mL/min/kg.
